Assay results published in EP1671630A2, “L-Arginine based formulations for treating diseases and methods of using the same” (Angiogenix, Inc., priority 1999, dated 2000).
Read-outs that look alike come from different tables or passages of the source.

Experiments:
y^+ transporter = test: Cellular uptake of [3H]-L-arginine via y+ transport in the presence of NOS agonists and NO donors; format: cell-based, bovine; settings: for increase of [^3H]-LA uptake / increase of LA uptake: Ach 5 µM; for maximum inhibition of LA transport: Fig. 8; for inhibition of LA transport: data not shown
Method: Characterization of L-arginine transport system in bovine aortic endothelial cells. […] Prior to experiments, cells were split 1:4, transferred into 24 well plates, and allowed to grow to confluency. […] CaCl2, 1.8 mM; KCl 5.4 mM, choline 140 mM; […] Uptake of LA was terminated by addition of ice cold buffer and cells were washed three times with 1 ml of buffer. […] Cellular uptake of LA via B^α+ system was determined by substituting sodium chloride for choline and incubating as described above. The difference in uptake determined for both transporters and that observed for y+ alone represented the amount of LA uptake contributed by sodium-dependent B^α+ system. […] It has been previously reported that passive, non-saturable diffusion of LA can occur but only when extracellular levels of LA are within the millimolar concentration. […] Uptake of LA was terminated and total cellular transport of LA determined as described above.

[1] = cited from earlier work
Bovine aortic EC = test: LA transport after exposure to homocysteine and its thiolactone; format: cell-based
Excerpt: A third aspect of the present invention is the treatment, prevention, or amelioration of homocysteinemia with L-arginine alone. Hyperhomocysteinemia is associated with vascular EC dysfunction and increased risk for atherosclerosis and atherothrombosis. Free radical formation during homocyst(e)ine auto-oxidation has been implicated in its vascular toxicity. Long-term EC exposure to homocyst(e)ine limits nitric oxide synthase (NOS) activity, increasing EC vulnerability to oxidative injury (Stamler et al., 1993). To see whether these effects could be due to alterations in cellular availability of the NOS substrate LA, we tested the effects on LA transport of D,L-homocysteine (DLH) and an auto-oxidation product, L-homocysteine thiolactone (LHT). Bovine aortic EC were exposed to DLH and LHT (1.1-5 mM) for 6 and 24 hours and then incubated with […] [^3H]-LA for 1 min. Cells were washed with ice cold buffer, lysed in 0.5% SDS in 0.1 N NaOH and radioactivity was determined. DLH increased LA uptake in a concentration dependent manner at 6 hr. […] However, after 24 hr. exposure LA uptake was decreased (25-40%).

[2] = target: T1, nitric oxide synthase (NOS) (Bos taurus, UniProt P29473); test: NO production in cultured endothelial cells (oxyhemoglobin to methemoglobin conversion and NO sensitive electrode); format: cell-based, bovine
T1 construct: DOX activity as a NOS agonist was investigated in cultured bovine aortic EC; endogenous in cells; host or cells: cultured bovine aortic endothelial cells
Excerpt: Doxazosin, a selective alpha-1 blocker, is pharmacologically similar to prazosin and terazosin. It has been shown that selective alpha-1 blockers lower total and LDL cholesterol. Thus, these selective alpha-1 blockers may be useful in treating both hypertension and hypercholesterolemia. […] In fact, a wide variety of vasoactive agents (e.g. bradykinin, muscarinic agonists and growth factors) which increase tPA levels are also agonists of nitric oxide synthase (NOS). DOX activity as a NOS agonist was investigated in cultured bovine aortic EC using two methods to assess NO production: conversion of oxyhemoglobin to methamoglobin and a NO sensitive electrode. […] This increase in NO to DOX (10^-6 M) was blocked by 72% by prior administration of the NOS inhibitor, L-NAME (5 x 10^-4 M). In addition, the NO responses were accentuated by the presence of supplemental L-arginine (5 x 10^-4 M) by 65%. […] This increase in NO to ACH (10^-6 M) was blocked by 86% by prior administration of L-NAME. In addition, the NO responses were accentuated by 72% in the presence of supplemental L-arginine. DOX, therefore, appears to be a NOS agonist in EC.
For all experiments, human coronary artery endothelial cells (passage 3-5 - Clonetics) were maintained at 37°, […] and 5% CO2 in Medium 199 (M199) supplemented with 5% fetal bovine serum (FBS, Hyclone), 10% iron supplemented FBS (Hyclone), thymidine (100mg mL^-1), penicillin G (100U mL^-1) and streptomycin (100µg mL^-1).
In all experiments, the effects of pretreatment with L-NAME (10^-3 M) in blocking the actions of DOX, and excess L-arginine (10^-3 M) in reversing any L-NAME effect was examined. Acetylcholine, an eNOS agonist, was used in all experiments as the positive control at concentrations of 10^-7 and 10^-6 M.
Methemoglobin - The effect of DOX on NO production in EC was determined using a photometric assay for conversion of oxyhemoglobin to methemoglobin. For this assay, EC grown to confluency on microcarrier beads are placed into a water-jacketed chromatography column and superfused with a Kreb's-Ringer buffer containing 3 µM oxyhemoglobin and 50 µM LA (L-arginine). Perfusate is then directed into a flow-through cuvette in a dual wavelength spectrophotometer and change in absorbancy (415/405 nm) is measured. Experimental stimulation was carried out by 3 min infusion periods of DOX added to buffer perfusion to yield final concentrations of 10^-7 and 10^-6 M. For analysis, we determined the area under the curve for the change in absorbancy response/min caused by DOX assuming a one to one correspondence for NO and metHb production, the known stoichiometric balance for this reaction. No electrode - NO production was measured with a NO meter connected to a polargraphic NO electrode as previously described. The NO sensor probe will be inserted vertically into 24-well plates containing confluent EC such that the tip of the electrode is submerged 2 mm under the surface of medium (above - 1ml). The reaction was initiated when desired concentrations of DOX are added to the well. Calibrations were performed with S-nitroso-acetyl-penicillamine.

[3] = tested on: bovine aortic endothelial cells (BAEC); test: Cellular superoxide anion formation (SOD-inhibitable reduction of ferricytochrome C); format: cell-based; settings: for inhibition of O2^•- production induced by A-23187: 5 × 10^-4M, A-23187 1 µM; for inhibition at 500 µM: Bos taurus, BAEC
Method: Cellular superoxide anion formation in the presence of NOS agonists. […] After reaching confluency, cells were washed 3 times (3 ml) with Dulbecco's phosphate buffered saline (DPBS) and 2 coverslips were placed in a disposable plastic cuvette facing each other. DPBS (1.8 ml) was gently placed in cuvette in addition to ferricytochrome C (final concentration, 50 µmol/L). […] Change in absorbance over time was determined and the amount of superoxide anion [ε=[…]] generated was determined over time and reported as pmoles O2^•-/min./10^6 cells.

[4] = read-out: reduced O2· induced by SP

bradykinin (RPPGFSPFR; Bradykinin; UniProt P01042 381-389, looked up) [BK]
increase of cellular transport of LA (y^+ transporter; BK 1αM, 15 minute exposure (maximum)): 42%
increase of cellular transport of LA (y^+ transporter; BK 1αM, 30 minutes): 39%
increase of cellular transport of LA (y^+ transporter; BK 1αM, 60 minutes): 16%
enhanced cellular uptake of LA (y^+ transporter; BK 1αM, 2 hour exposure): 38%
increase in transport of LA (y^+ transporter; BK 1αM, 3 hour exposure): 19%
increase in transport of LA (y^+ transporter; BK 1αM, 5 hour exposure): 22%

CC(=O)N[C@H](C(=O)O)C(C)(C)SN=O [SNAP, S-nitroso-acetyl-penicillamine]
t1/2 of NO donation [1]: ~ 10 minutes
increased activity of the Y^+ transporter (y^+ transporter; 200 µM SNAP (0.4 µM NO), ten minutes of exposure): 37%
elevation of Y^+ transporter activity (y^+ transporter; 200 µM SNAP, 30 minute exposure): not seen
uptake of [^3H]-LA reduced (y^+ transporter; 200 µM SNAP, 1 hour): 22%
reduction of uptake of [^3H]-LA (y^+ transporter; 200 µM SNAP, 2 hour exposure): 46%
reduction of uptake of [^3H]-LA (y^+ transporter; 200 µM SNAP, 3 hour exposure): 45%
reduction of uptake of [^3H]-LA (y^+ transporter; 200 µM SNAP, 5 hour exposure): 36%

N[C@H]1CCSC1=O [LHT, L-homocysteine thiolactone]
LA transport (Bovine aortic EC; after 6 and 24 hrs exposure, 1.1-5 mM): dose-related decrease

N=C(N)NCCC[C@H](N)C(=O)O [L-arginine]
NO responses accentuated by supplemental L-arginine ([2]; NO responses to DOX, L-arginine 5 x 10^-4 M): 65%
NO responses accentuated in the presence of supplemental L-arginine ([2]; NO responses to acetylcholine): 72%
inhibition of O2^•- production induced by A-23187 [3]: 60%
inhibition at 500 µM [3, 4]: 51%
prevention of basal production of O2^•- ([3]; LA 5 x 10^-4M, basal): not

COC(=O)[C@@H](N)CCCN=C(N)N[N+](=O)[O-] [L-NAME, n-ω-nitro-L-arginine methyl ester]
increase in NO blocked by prior administration of L-NAME ([2]; NO response to ACH 10^-6 M): 86%
inhibition at 500 µM ([2]; read-out: increase in NO blocked by prior administration of L-NAME): 72%
inhibition of O2^•- production induced by A-23187 [3]: 58%
inhibition at 500 µM ([3]; 1 h, read-out: prevented basal production of O2^•-): 100%
inhibition at 500 µM [3, 4]: 81%

CC(=O)OCC[N+](C)(C)C [Acetylcholine, acetylcholine]
increase of [^3H]-LA uptake (y^+ transporter; 2 minute exposure): 22%
increase of [^3H]-LA uptake (y^+ transporter; 15 minute (maximum)): 27%
increase of LA uptake (y^+ transporter; 30 minutes): 16%
increase of LA uptake (y^+ transporter; 60 minutes): 15.5%

COc1cc2nc(N3CCN(C(=O)C4COc5ccccc5O4)CC3)nc(N)c2cc1OC (stereo not shown) [DOX, Doxazosin]
dose-related increase in NO production ([2]; DOX 10^-7 - 10^-5 M, cultured bovine aortic EC): 64-145%

CNc1ccc2oc(C[C@H]3O[C@@]4(CC[C@H]3C)O[C@H]([C@H](C)C(=O)c3ccc[nH]3)[C@H](C)C[C@H]4C)nc2c1C(=O)O [A-23187]
increased O2· production above basal levels [3]: 2.5 fold

NC(CCS)C(=O)O (racemic) [DLH, D,L-homocysteine]
LA uptake decreased (Bovine aortic EC; 24 hr. exposure, 1.1-5 mM): 25-40%
activation at 5000 µM (Bovine aortic EC; Bos taurus, 5 mM, 6 hr exposure, read-out: maximum increase of LA uptake): 53%

CSCC[C@H](NC(=O)[C@H](CC(C)C)NC(=O)CNC(=O)[C@H](Cc1ccccc1)NC(=O)[C@H](Cc1ccccc1)NC(=O)[C@H](CCC(N)=O)NC(=O)[C@H](CCC(N)=O)NC(=O)[C@@H]1CCCN1C(=O)[C@H](CCCCN)NC(=O)[C@@H]1CCCN1C(=O)[C@@H](N)CCCNC(=N)N)C(N)=O [SP, substance P]
increased O2· production above basal levels ([3]; 1 µM, 60 minute period): 3.5 fold
increase of y^+ transport of LA into cells (y^+ transporter; SP 1µM, 15 minutes exposure): 24%
increase of y^+ transport of LA into cells (y^+ transporter; SP 1µM, 30 minutes): 24%
increase of y^+ transport of LA into cells (y^+ transporter; SP 1µM, 60 minutes): 21%
y^+ transporter activity enhanced from control values (y^+ transporter; SP 1µM, 2 hour exposure): ≤ 34%
cellular LA increase (y^+ transporter; SP 1µM, 3 hour exposure): 27%
cellular LA increase (y^+ transporter; SP 1µM, 5 hour exposure): 21%

NCCCN(CCCN)/[N+]([O-])=N/O [DPTA-NONOate, dipropylenetriamine NONOate]
maximum inhibition of LA transport (y^+ transporter; 0.01 µM DPTA, 2 hour exposure): 20%
effect on y^+ system (y^+ transporter; 1 µM DPTA-NONOate (2 µM NO), 15 and 30 min): no significant effect
inhibition of LA transport (y^+ transporter; 1 µM DPTA-NONOate (2 µM NO), 1 hour exposure): 22%
inhibition of LA transport (y^+ transporter; 1 µM DPTA-NONOate (2 µM NO), 2 hour exposure): 24%
inhibition of LA transport (y^+ transporter; 1 µM DPTA-NONOate (2 µM NO), 4 hour exposure): 29%
maximum inhibition of LA transport (y^+ transporter; 1 µM DPTA, 2 hour exposure): 24%
maximum inhibition of LA transport (y^+ transporter; 10 µM DPTA, 2 hour exposure): 44%
